Laboratory results as given in patent US20060148885A1, “Medicinal composition” (Kyowa Hakko Kogyo Co., Ltd., priority 2003, published 2006).
Where a name gives a salt, the structure may show the parent alone.

Tested on: rats with bladder hypertrophy
Assay: Inhibitory activity on detrusor overactivity: cystometry in rats with partial urethral obstruction
Assay type: in vivo, SD rats
Details: p.o., Compound (Ia) 0.01 mg/kg, tamsulosin 0.03 mg/kg; for amplitude of premicturition contractions (relative value, before administration = 100) / frequency of premicturition contractions (relative value, before administration = 100) / amplitude of micturition contractions (relative value, before administration = 100): average ± standard error; for amplitude of premicturition contractions (relative value, before administration = 100) / frequency of premicturition contractions (relative value, before administration = 100): n = 9-10; for amplitude of micturition contractions (relative value, before administration = 100): index of voiding function; for effect on micturition contractions (voiding function), in words / effect on premicturition contractions (amplitude and frequency), in words: summary of Test Example
Protocol: The experiment was carried out according to the method by Malmgren, et al. [J. Urol., Vol. 142, pp. 1134-1138 (1989)]. Female SD rats of 8 to 9 weeks of age (supplied by Charles River Japan) were used in the test. Five to seven animals of these rats were housed in metal cages and given commercially available chow and water ad libtum, in an animal room maintained at room temperature from 19° C. to 25° C. and humidity from 30% to 70% under illumination for 12 hours (7:00 a.m.-7:00 p.m.) per day. The rats were subjected to operation of partial urethral obstruction. Each animal was anesthetized by intraperitoneal administration of 50 mg/kg pentobarbital sodium (Tokyo Kasei), and the midline incision of the skin and muscle was made in the lower abdomen. A polyethylene tube (PE-20, Becton Dickinson) was inserted into urethra from the urethral orifice to the bladder neck. After the proximal urethra was separated from connective tissues and ligated using double suture, the polyethylene tube was removed to induce partial urethral obstruction. The incised part was sutured with a surgical silk thread. An antibiotic ampicillin (Sigma) was intramusclarly injected (150 mg/kg, once a day, for 3 days). Six weeks after the operation of the partial urethral obstruction, the rats with bladder hypertrophy were subjected to intravesical implantation of catheter. Under anesthesia with pentobarbital sodium, the bladder was exposed by an abdominal midline incision. A polyethylene tube (PE-50, Becton Dickinson), one end of which was blunted not to damage the bladder tissue, was filled with a physiological saline (Otsuka Pharmaceutical Factory) and inserted into the bladder via the bladder apex. The intravesical catheter was fixed with a surgical silk suture. The other end of the catheter was tunneled subcutaneously, drawn out from the dorsal neck, plugged and then fixed to the skin with a suture. Four to seven days after the surgery for implantation of intravesical catheter, a cystometry test was performed. The rats were housed in a Bollman cage (Natsume Seisakusho) and a three-way stopcock was connected to the intravesical catheter, one end of the stopcock was connected to a pressure transducer (Nihon Kohden) and the other end was connected to a 50-mL syringe (Terumo) set in an infusion pump (KD Scientific) for physiological saline infusion. The intravesical pressure was measured with a polygraph system (RMP-6008, Nihon Kohden) via a pressure transducer and a strain pressure amplifier (AP-621G, Nihon Kohden), and recorded on a thermal array recorder (RTA-1200, Nihon Kohden). Sixty to 90 minutes after the completion of the preparation for the measurement, a room temperature physiological saline was continuously infused into the urinary bladder for 30 minutes at a flow rate of 10 mL/h to confirm the occurrence of micturition contractions and premicturition contractions (detrusor overactivity). Thirty minutes after the cessation of the first saline infusion, the saline was again infused intravesically for 30 minutes, and this period is for determination of the data before drug administration. Compound (Ia) was suspended in a 0.5 w/v (weight/volume) % methyl cellulose solution at a concentration of 1 mg/ml. The suspension was further diluted with a 0.5 w/v % methyl cellulose solution to prepare solution for administration [solution for Compound (Ia) administration] at a concentration of 0.01 mg/ml. The solution was orally administered to the rats at a volume of 1 ml/kg. Tamsulosin hydrochloride was dissolved in a 0.5 w/v % methyl cellulose solution at a concentration of 0.03 mg/ml (solution for tamsulosin administration), and the solution was orally administered to the rats at a volume of 1 ml/kg. For investigating the effect of the combined administration, Compound (Ia) solution and the tamsulosin solution were simultaneously and orally administered to the rats, both at a volume of 1 ml/kg each. […]

Row | SMILES | amplitude of premicturition contractions (relative value, before administration = 100) (After 1 hour) | frequency of premicturition contractions (relative value, before administration = 100) (After 1 hour) | amplitude of micturition contractions (relative value, before administration = 100) (After 1 hour) | amplitude of premicturition contractions (relative value, before administration = 100) (After 3 hours) | frequency of premicturition contractions (relative value, before administration = 100) (After 3 hours) | amplitude of micturition contractions (relative value, before administration = 100) (After 3 hours) | amplitude of premicturition contractions (relative value, before administration = 100) (After 5 hours) | frequency of premicturition contractions (relative value, before administration = 100) (After 5 hours) | amplitude of micturition contractions (relative value, before administration = 100) (After 5 hours) | effect on micturition contractions (voiding function), in words | effect on premicturition contractions (amplitude and frequency), in words
1 | C[C@](O)(C(=O)Nc1cccc2c1C(=O)c1sccc1CS2(=O)=O)C(F)(F)F [Compound (Ia), (S)-(+)-3,3,3-trifluoro-2-hydroxy-2-methyl-N-(5,5,10-trioxo-4,10-dihydrothieno[3,2-c][1]benzothiepin-9-yl)propanamide] | 62.3 ± 7.7 % | 52.3 ± 7.3 % | 109.5 ± 2.2% | 62.8 ± 7.6 % | 46.2 ± 8.1 % | 105.5 ± 3.8% | 65.6 ± 7.5 % | 42.4 ± 6.0 % | 96.7 ± 2.4% | did not affect micturition contractions | inhibited premicturition contractions
2 | CCOc1ccccc1OCCN[C@H](C)Cc1ccc(OC)c(S(N)(=O)=O)c1 [Tamsulosin, Tamsulosin hydrochloride] | 62.0 ± 5.2 % | 57.8 ± 7.5 % | 108.5 ± 6.4% | 75.2 ± 5.5 % | 73.2 ± 5.3 % | 108.1 ± 6.0% | 88.3 ± 7.2 % | 78.4 ± 7.0% | 104.7 ± 6.4% | did not affect micturition contractions | inhibited premicturition contractions
